Assay results reported in patent US4659726A, “Novel 4,5-Bis (4-methoxyphenyl)-2-(pyrrol-2-yl) thiazoles and pharmaceutical composition containing the same” (Kanebo, Ltd., priority 1984, dated 1987).

Key:
[1] = system: Platelet aggregation (collagen); test: Platelet aggregation inhibitory activity, ex vivo after oral administration to guinea pigs, collagen as aggregating agent; assay type: in vivo, Hartley strain male guinea pigs; details: Cavia porcellus, oral, guinea pig, blood collected after 3 hours, 100 μg/ml collagen suspension (50 μl), 50% inhibitory rate, read-out: Platelet aggregation inhibitory activity Collagen ED50
Experimental: (§1) Hartley strain male guinea pigs (weighing 300-350 g, one group: three animals) were fasted overnight, and to the animals were orally administered a solution or suspension of the test compounds in corn oil-10% arabic gum. […] The citrated blood thus obtained was centrifuged at 1,700 rpm for 10 minutes, and a platelet-rich plasma (PRP) was obtained from the supernatant. After isolating PRP, the remaining blood was further centrifuged at 3,000 rpm for 10 minutes, and a platelet-poor plasma (PPP) was obtained from the supernatant.
(§2) The PRP (450 μl) thus obtained was incubated at 37° C. for 3 minutes, and thereto was added 1.0 mM sodium arachidonate (50 μl) as an aggregating agent, and then the platelet aggregation thereof was measured with Platelet Aggregation Profiler® (Model PAP-3, manufactured by Bio Data Corp.) while using the PPP obtained above as a blank. As a control, as to animals to which no test compound was administered, the platelet aggregation rate was measured likewise.
(§3) The platelet aggregation inhibitory rate was calculated by the following equation. [formula]
Moreover, the above method was repeated except that 100 μg/ml collagen suspension (50 μl) was used as an aggregating agent instead of sodium arachidonate.

[2] = system: Platelet aggregation (arachidonate); test: Platelet aggregation inhibitory activity, ex vivo after oral administration to guinea pigs, sodium arachidonate as aggregating agent; assay type: in vivo, Hartley strain male guinea pigs; details: Cavia porcellus, oral, guinea pig, blood collected after 3 hours, 1.0 mM sodium arachidonate (50 μl), 50% inhibitory rate, read-out: Platelet aggregation inhibitory activity Arachidonate ED50
Experimental: as §1, §2, §3

in vivo = details: mouse, oral, ddy male mice, deaths counted at 10 days, Weil method, read-out: Acute toxicity LD50
Source text: ddy male mice (weighing 18-23 g, one group: 5 animals) were fasted overnight, and thereto was orally administered a suspension of the test compounds in 1% arabic gum solution.

SMILES	ED50 [1]	ED50 [2]	LD50 at 240 h (in vivo)
CCOCCn1cccc1-c1nc(-c2ccc(OC)cc2)c(-c2ccc(OC)cc2)s1 [Ex. 38, 4,5-bis(4-methoxyphenyl)-2-[1-(2-ethoxyethyl)pyrrol-2-yl]thiazole]	0.29 mg/kg	0.09 mg/kg	> 3000 mg/kg
C=COCCn1cccc1-c1nc(-c2ccc(OC)cc2)c(-c2ccc(OC)cc2)s1 [Ex. 39, 4,5-bis(4-methoxyphenyl)-2-[1-(2-vinyloxyethyl)pyrrol-2-yl]thiazole]	0.49 mg/kg	0.33 mg/kg	> 3000 mg/kg
CCSCCn1cccc1-c1nc(-c2ccc(OC)cc2)c(-c2ccc(OC)cc2)s1 [Ex. 40, 4,5-bis(4-methoxyphenyl)-2-[1-(2-ethylthioethyl)pyrrol-2-yl]thiazole]	0.51 mg/kg	0.41 mg/kg	> 3000 mg/kg
CCOCCCn1cccc1-c1nc(-c2ccc(OC)cc2)c(-c2ccc(OC)cc2)s1 [Ex. 41, 4,5-bis(4-methoxyphenyl)-2-[1-(3-ethoxypropyl)pyrrol-2-yl]thiazole]	0.35 mg/kg	0.3 mg/kg	> 3000 mg/kg
